Here are results for 1 compound from article PMC6131501, “Urate transporter inhibitor lesinurad is a selective peroxisome proliferator-activated receptor gamma modulator (sPPARγM) in vitro” (Scientific Reports, 2018).

In assay [1] the target is T1, recombinant PPARγ ligand binding domain (Homo sapiens, UniProt P37231).
T1 sequence (P37231 238-503 limits assumed): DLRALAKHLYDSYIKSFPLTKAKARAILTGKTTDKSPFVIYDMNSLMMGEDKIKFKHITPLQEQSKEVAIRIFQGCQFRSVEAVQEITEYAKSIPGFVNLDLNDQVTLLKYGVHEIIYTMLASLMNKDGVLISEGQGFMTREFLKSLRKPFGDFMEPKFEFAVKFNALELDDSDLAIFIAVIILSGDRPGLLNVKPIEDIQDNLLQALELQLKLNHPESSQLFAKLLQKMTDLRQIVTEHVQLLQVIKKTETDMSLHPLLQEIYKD
In words: Isothermal titration calorimetry (ITC). On the procedure:
To confirm direct modulation of PPARγ by lesinurad, we analyzed their interaction by isothermal titration calorimetry (ITC). Due to limited solubility of lesinurad, recombinant PPARγ ligand binding domain (LBD) protein was (reversely) titrated to the drug.
Isothermal titration calorimetry (ITC) was conducted on an Affinity ITC (TA Instruments Affinity ITC). Recombinant PPARγ ligand binding domain protein (138 μM) and lesinurad (40 μM) were each dissolved in a HEPES buffer (25 mM; adjusted to pH 7.5 with KOH; further containing 150 mM KF, 10% glycerol (w/w), 1% DMSO (v/v) and 5 mM DTT). The ITC instrument was adjusted to a temperature of 25 °C and the stirring rate was set at 75 rpm. 190 μL lesinurad solution were filled into the reaction cell and PPARγ ligand binding domain solution was titrated in 41 injections. […] An interval of 200 s was maintained between individual injections. The heats of dilution resulting from titrating PPARγ ligand binding domain protein solution into the buffer solution were recorded in an additional ITC run and subtracted from the raw ITC data obtained for lesinurad.
ITC raw data was analyzed using NanoAnalyze software package (version 3.7.5). An independent binding model was used to fit the reaction enthalpy (ΔH), binding affinity constant (Kd), and stoichiometry (n). Free energy change (ΔG) was calculated from the equation ΔG = −RT ln K and the entropy (ΔS) was calculated from ΔG = ΔH−TΔS.
(In ITC the heat of successive injections is recorded.)

For assay [2], the system named is PPARγ-regulated genes in 3T3-L1 adipocytes. In words: PPARγ target gene quantification in 3T3-L1 adipocytes (qPCR). It is filed as cell-based, murine. As to conditions: 3T3-L1 adipocytes, rosiglitazone 2 μM, 1 30 μM, mean ± SEM, n = 3. How it is done: 3T3-L1 cells were cultured and differentiated as described above. Cells were then lysed using TRIzol reagent (Ambion, Life Technologies, Carlsbad, CA, USA), and mRNA was isolated following the manufacturer’s protocol. DNA contaminations were digested using DNase (DNase I, RNase-free kit; Thermo Scientific, Waltham, MA, USA) and mRNA concentrations were measured with a NanoDrop2000 spectrophotometer (Thermo Scientific, Waltham, MA, USA). Subsequently, reverse transcription was performed using the high capacity RNA-to-cDNA kit (Applied Biosystems, Foster City, CA, USA). Quantitative real-time PCR was performed using specific primers for CD36, […] and CPT1A with a StepOnePlus real-time PCR system (Applied Biosystems, Foster City, CA, USA). Non-POU domain containing octamer binding protein (NonO) was used as reference gene for 3T3-L1. All samples were measured in duplicate and were analyzed using the ΔΔCt method. The following PCR primers were used: Adiponectin: 5′-TGACGACACCAAAAGGGCTC-3′ (fwd) and 5′-CACAAGTTCCCTTGGGTGGA-3′ (rev); CD36: 5′-TGCTGGAGCTGTTATTGGTG-3′ (fwd) and 5′-CATGAGAATGCCTCCAAACA-3′ (rev); FABP4: 5′-AGAAGTGGGAGTGGGCTTTG-3′ (fwd) and 5′-ACTCTCTGACCGGATGGTGA-3′ (rev); GLUT4: 5′-TGAAGAACGGATAGGGAGCAG-3′ (fwd) and 5′-GAAGTGCAAAGGGTGAGTGAG-3′ (rev); NonO: 5′-TGCTCCTGTGCCACCTGGTACTC-3′ (fwd) and 5′-CCGGAGCTGGACGGTTGAATGC-3′ (rev).
Results (expressed as mean ± SEM % relative mRNA expression; n = 3): Adiponectin: untreated (0.1% DMSO): 124 ± 45%; […];
On the technique in general: Quantitative PCR measures a nucleic acid by following its amplification.

Assay [3] in a line: Control reporter experiment in absence of a hybrid receptor. It is filed as cell-based. As to conditions: 30 μM, w/o hybrid receptor. The source says:
These in vitro test systems are based on a constitutively expressed hybrid receptor composed of the ligand binding domain of the respective human nuclear receptor and the DNA binding domain of the yeast receptor Gal4. A Gal4-inducible firefly luciferase serves as reporter gene and a constitutively expressed renilla luciferase is used for normalization of transfection efficacy and internal toxicity control[18],[19].

Several values for one entry are separate records, joined by “and”; a condition that tells them apart may be missing. Equal values may be shown once.

As a reminder, the Kd is the constant that tells how readily two partners part at equilibrium. Take `O=C(O)CSc1nnc(Br)n1-c1ccc(C2CC2)c2ccccc12` [lesinurad]: the Kd in assay [1] (25 °C, PPARγ LBD titrated to drug, independent binding model) amounted to 1300 nM. In assay [1] (25 °C, calculated from ΔG = ΔH−TΔS), the ΔS is 27 J/mol·K and 26,99 J/mol·K. Moreover, in assay [1] (value printed in the picture of Fig. 4), the “n (stoichiometry)” value was 0,987. Further, in assay [2] (untreated 122 ± 43%), the “CD36 relative mRNA expression” value worked out at 205 ± 76%. For the same compound, the “Adiponectin relative mRNA expression” value in assay [2] (untreated 124 ± 45%) is listed as 175 ± 63%. Moreover, in assay [2] (untreated 145 ± 61%), the “GLUT4 relative mRNA expression” value came to 128 ± 43%. In addition, in assay [2] (untreated 161 ± 72%), the “FABP4 relative mRNA expression” value is 151 ± 58%. Besides, the “reporter transactivation in absence of a hybrid receptor” value in assay [3] is “no reporter transactivation”.
